What was measured:
[1] = tested on: Col2a1 expression in dedifferentiated osteoarthritic chondrocytes; test: Col2a1 relative expression in high passage osteoarthritic chondrocyte monolayer model with TGF-β; format: cell-based, human; conditions: 14 days in culture with TGF-β; 28 mM Lac, 100 mm LA
Protocol: These compounds were tested in a high passage osteoarthritic chondrocyte monolayer model, alone or in combination with other agents, for both transcriptional regulation of standard markers and IL-1β-induced PGE2 production.

[2] = tested on: PGE2 release from normal human chondrocytes; test: IL-1β-induced PGE2 release from normal human chondrocyte monolayers, 48 h, competitive EIA; format: cell-based
Protocol: Mechanical stress and inflammation are thought to sustain catabolic cycles of extracellular matrix deterioration during osteoarthritis. In particular, PGE2 correlates with increased protease production and discomfort or pain in osteoarthritis.
After 48-hours, PGE2 release was evaluated by competitive EIA, and relative potency was calculated versus dose responses of Dex alone.
After 48 hours, PGE2 release was evaluated by competitive enzyme immunoassay (EIA), and relative potency was calculated versus Dex alone.
Lac is commonly thought to be simply an end-product of anaerobic glycolysis; however, it may also have immunomodulatory effects and promote protein modifications that alter gene expression. The goal of this experiment was to determine how Lac supplementation affects early-phase, inflammatory, and late-stage redifferentiation in chondrocyte models. To establish how Lac may influence inflammation early in osteoarthritis, monolayers of normal human chondrocytes were exposed to Lac dose responses of up to 100 millimolar, concurrently with 0.5 nanograms per milliliter IL-1β for 48 hours. The release of PGE2 was then quantified using competitive EIA. To investigate how Lac affects transcriptional programs in dedifferentiated osteoarthritic chondrocytes, monolayer cultures and micromass pellets were treated for 14 days with 100 millimolar final concentrations of Lac, with and without 10 nanograms per milliliter transforming growth factor beta 3 (TGF-β3). Total RNA was then isolated, and relative expression of SOX9 or Col2a1 was calculated using qRT-PCR, normalized to GAPDH.

[3] = tested on: Col2a1 expression in low passage osteoarthritic chondrocytes; test: Col2a1 relative expression in low passage osteoarthritic chondrocytes; format: cell-based, human; conditions: day 28

## CC(O)C(=O)O (stereo not shown) [Lac, lactate]
[1]
  increase in Col2a1 compared to controls: 30 fold
[2]; IL-1β 48 h
  concentration with statistically significant effect on PGE2 release: ≥ 10 millimolar
[2]; Lac 100 millimolar, 0.5 ng/mL IL-1β, 48 h
  inhibition of PGE2 release: complete inhibition
[3]
  relative expression of Col2a1: elevated Col2a1 relative expression

From patent publication US20250288599A1, “PHARMACEUTICAL COMPOSITIONS AND METHODS FOR TREATING OSTEOARTHRITIS” (INSIGNIA PHARMACEUTICALS, LLC, priority 2024, published 2025)
